The results in this text go back to patent US20250255929A1, “METHODS FOR REDUCING RISKS ASSOCIATED WITH HEART FAILURE AND FACTORS ASSOCIATED THEREWITH” (Stealth BioTherapeutics Inc., priority 2012, published 2025).

Common to all, as to assay type: in vivo
In one experiment the test system is interleukin-6 (IL-6). In words: Plasma IL-6 (double antibody sandwich ELISA) in dog model of heart failure. To be noted: for plasma IL-6 levels (FIG. 3), in words: HF dogs. As to the method: The methods of Example 1 were used to induce heart failure, administer peptide or vehicle and collect plasma. Fourteen dogs were used in this example. Half the dogs were treated with the mitochondrial peptide; the other half were treated with drug vehicle and served as controls. Peptide treatment was started in both groups upon induction of heart failure (HF), defined as left ventricular ejection fraction of approximately 30%.
IL-6 was quantified in EDTA-plasma using the double antibody sandwich ELISA technique. Briefly, IL-6 (Canine IL-6 Duo Set, Cat #DY1609) was purchased from R&D Systems. The assay was performed based on instructions provided by the supplier with minor modifications. The amount of EDTA-plasma incubated with the antibody plate was 150 μl and incubation time was 18 hours at 4° C. Using standard curves and software, the concentration of IL-6 was expressed as pg/ml.
A general note: ELISA stands for enzyme-linked immunosorbent assay.

For a further experiment, the system named is ALCAT1. Nature of the experiment: ALCAT1 mRNA in LV tissue (real-time PCR), dog model of heart failure. To be noted: LV tissue of HF dogs, 3 months, 0.5 mg/kg once daily s.c., n=6; untreated HF increased 3.56-fold vs normal; normalized to GAPDH. The protocol:
(§1) Heart failure was induced in dogs via multiple sequential intracoronary microembolizations as described in Sabbah, et al., Am J Physiol. (1991) 260:H1379-84, herein incorporated by reference in its entirety.
Twelve dogs were subject to coronary microembolization-induced heart failure (LV ejection fraction ˜30%) as described in Example 1. […] RNA was prepared from LV tissue of all 12 dogs at the end of the treatment phase and from the LV of 6 normal (NL) dogs for comparison. mRNA levels of Taz1, MLCL AT1 and ALCAT1 were determined by real-time PCR. Changes in mRNA expression were expressed as fold changes using the CT Method with normalization to […] (GAPDH) as internal control.
Background: Quantitative PCR measures a nucleic acid by following its amplification.

The next experiment deals with C-reactive protein. In words: Plasma C-reactive protein (canine ELISA) in dog model of heart failure. Also on record: C-reactive protein concentration, BL, Mean / C-reactive protein concentration, 12 Wk, Mean / C-reactive protein concentration, BL / C-reactive protein concentration, 6 Wk / C-reactive protein concentration, 12 Wk: unit not given here. To be noted: for plasma CRP levels (FIG. 1), in words: HF dogs. The protocol:
as §1
Half the dogs were subsequently treated with the mitochondrial peptide; the other half were treated with drug vehicle and served as controls. Peptide treatment was started upon induction of heart failure (HF), defined as left ventricular ejection fraction of approximately 30%. Peripheral venous blood samples were obtained from all dogs at the following time points: 1) when the dogs were normal (baseline, prior to the induction of heart failure); 2) when the dogs were induced into heart failure; 3) at 6 weeks after initiating therapy with the mitochondrial peptide or vehicle (HF+peptide, or HF+vehicle) both administered once daily as subcutaneous injections; and 4) at 12 weeks after initiating therapy with the mitochondrial peptide or vehicle. The daily dose of the peptide was 0.5 mg/kg/day administered […]. Blood samples were drawn on EDTA anticoagulant and were centrifuged at 2,500 RPM and the plasma extracted, aliquoted in 1 ml volumes into crystat tubes and stored at −70° C. until assayed. Once the follow-up was completed in all dogs, the plasma samples were thawed to room temperature and CRP was assayed using a canine specific ELISA kit (ALPCO: Cat #41-CRPCA-E01). The calorimetric method was used to assess the amount of CRP in plasma. CRP concentration was expressed as […].

Values joined by “and” are separate entries in the source; they are usually repeats but may differ in a detail not shown here. Equal entries are not always repeated. Square brackets hold non-standard residues; d marks the D form. Ends that are not written are not given here. Dmt = Cc1cc(O)cc(C)c1C[C@H](N)C(=O)O

As for “D-Arg-2′,6′-Dmt-Lys-Phe-NH2 ([dR][Dmt]KF-NH2) [aromatic-cationic peptide]”, the “plasma IL-6 levels (FIG. 3), in words” value with interleukin-6 (IL-6) (treatment for 12 weeks) was “near normal levels”; with interleukin-6 (IL-6) (treatment for six weeks), “reduced IL-6 levels”. The “IL-6 concentration, 6 Wk” value with interleukin-6 (IL-6) (plasma, individual HF dogs, 6 weeks after initiating therapy) is 18.8 pg/ml and 23.4 pg/ml and 24.3 pg/ml and 19.5 pg/ml and 19.6 pg/ml (2×) and 20.5 pg/ml. In the experiment on interleukin-6 (IL-6) (plasma, individual HF dogs, 12 weeks after initiating therapy), the “IL-6 concentration, 12 Wk” value was 11.7 pg/mL and 11.3 pg/mL and 13.6 pg/mL and 11.5 pg/mL and 12.5 pg/mL and 11.9 pg/mL and 11.4 pg/mL. Also, the “IL-6 concentration, 6 Wk, Mean” value in the experiment with interleukin-6 (IL-6) (plasma, mean of 7 HF dogs, 6 weeks after initiating therapy) is 20.8 pg/mL. For the same substance, the “IL-6 concentration, 12 Wk, Mean” value in the experiment on interleukin-6 (IL-6) (plasma, mean of 7 HF dogs, 12 weeks after initiating therapy) was found to be 12.0 pg/mL. In the experiment with interleukin-6 (IL-6) (plasma, peptide group mean (7 dogs), baseline (before HF and treatment)), the “IL-6 concentration, BL, Mean” value was 10.1 pg/mL. Further, the “IL-6 concentration, PRE, Mean” value in the experiment with interleukin-6 (IL-6) (plasma, peptide group mean (7 dogs), heart failure prior to initiating therapy) came to 26.6 pg/mL. Moreover, the “IL-6 concentration, BL” value in the experiment on interleukin-6 (IL-6) (plasma, peptide group, individual dogs, baseline (before HF and treatment)) was 9.1 pg/mL and 5.8 pg/mL and 7.0 pg/mL and 12.6 pg/mL and 10.3 pg/mL and 12.5 pg/mL and 13.0 pg/mL. Moreover, the “IL-6 concentration, PRE” value in the experiment with interleukin-6 (IL-6) (plasma, peptide group, individual dogs, heart failure prior to initiating therapy) was 29.3 pg/mL and 18.5 pg/mL and 29.2 pg/mL and 18.0 pg/mL and 31.2 pg/mL and 29.4 pg/mL and 30.4 pg/mL. Further, the “ALCAT1 mRNA: reduced increase, fold” value in the experiment on ALCAT1 is 1.54 fold. Further, the “plasma CRP levels (FIG. 1), in words” value in the experiment with C-reactive protein (treatment for 12 weeks) is “normal or near normal levels”; in the experiment on C-reactive protein (treatment for six weeks), “reduced CRP levels”. Moreover, the “C-reactive protein concentration, 6 Wk” value in the experiment with C-reactive protein (plasma, individual HF dogs, 6 weeks after initiating therapy, 0.5 mg/kg/day) is 1.12. In addition, the “C-reactive protein concentration, 12 Wk, Mean” value in the experiment on C-reactive protein (plasma, mean of 3 HF dogs, 12 weeks after initiating therapy, 0.5 mg/kg/day) worked out at 1.42. Further, the “C-reactive protein concentration, BL, Mean” value in the experiment with C-reactive protein (plasma, peptide group mean (3 dogs), baseline, prior to induction of heart failure (before treatment)) worked out at 1.82.
